Consider five molecules from patent US9988462B2, “Material and methods for treating or preventing HER-3 associated diseases” (Daiichi Sankyo Europe GmbH, priority 2005, dated 2018).

The subject of data set [1] is HER3 phosphorylation in A549 cells. The experiment in a line: Reactivation study: pHER3 ELISA in A549 cells. It is filed as cell-based, human. As to the method:
Experiments were performed in triplicate wells and repeated at least 2 times. Results are expressed as mean±SD.
A549 cells were plated in Ham's F-12 medium (Gibco), all media supplemented with 10% FBS (Hyclone, Logan, Utah) and 1× L-glutamine (Gibco). Cells were serum-starved overnight. […] Cells were washed with cold PBS after their respective treatment time points and lysed using RIPA buffer (20 mM Tris-HCl pH 7.5, 1% Igepal, 1% sodium deoxycholate, 150 mM NaCl, 0.1% SDS, 1% Triton X-100) containing 200 μM phenylmethanesulfonylfluoride (PMSF) (Fluka Biochemica), 200 μM Halt protease inhibitor cocktail kit (Pierce Biotechnology), and 200 μM sodium orthovanadate (Sigma-Aldrich, St. Louis, Mo.). The lysates were passed through QIA shredder columns (Qiagen) and the flow-through quantitated using a spectrophotometer (Beckman Coulter, Fullerton, Calif.). Proteins, 50 μg per well, were analyzed in duplicate for pHER3 using ELISA Duoset (R&D systems) according to manufacturer's protocol.

Data set [2] concerns HCC-1569. The experiment in a line: HCC-1569 breast cancer xenograft, U1-59 and lapatinib. It is filed as in vivo, mouse. The settings on record: HCC-1569 xenograft.
In data set [3] the test system is BxPC3 pancreatic xenografts. The experiment in a line: BxPC3 xenograft dose/schedule efficacy (PK/PD/Efficacy model). It is filed as in vivo, mouse. The settings on record: vs IgG control. As to the method: (§1) Inhibition of pHER in the BxPC3 xenograft tumors was analyzed by western blotting. A PK/PD/Efficacy model (based on Simeoni et al. (2004) Cancer Res. 64:1094-1101) was used to prospectively select dose and schedule for further testing. To confirm the PK/PD/Efficacy model, BxPC3 pancreatic tumor-bearing mice were treated with 400 μg/mouse biweekly and 200 μg/mouse biweekly, weekly and twice a week. […] The relationship between drug concentration, inhibition of pHER-3 in animals, and interspecies PK scaling was used to select the minimally effective dose for the first in human study.

Data set [4] has as its system SkBr-3 breast cancer cells. The experiment in a line: Anchorage-independent growth of SkBr-3 cells. It is filed as cell-based, human. The method, then: (§2) IgG was used as a negative control for all studies. Tumor cell colonies formed in the absence or presence of HRG for 6 to 10 days and were stained with MTT for 4 to 6 hours and quantified.
Data set [5] can be described thus: Serum concentration of U1-59 at necropsy. It is filed as in vivo, mouse. As to the method: as §1
In data set [6] the test system is HER-3 phosphorylation (pHER-3). The experiment in a line: Pharmacodynamic pHER-3 immunoblot of BxPC3 tumor xenografts. It is filed as in vivo, mouse. The settings on record: 500 μg on day 1 and day 4, sacrificed day 5. As to the method:
The inhibition of HER-3 in the human pancreatic tumors could also be shown in a pharmacodynamic experiment. The BxPC3 tumor xenografts were grown as described above. […] The mice were treated on day 1 and day 4 and then sacrificed on day 5 to measure the antibody-dependent inhibition of HER-3 phosphorylation (pHER-3).
The tumors were homogenized in a standard RIPA buffer with protease inhibitors. 50 μg clear lysate was separated on a 4-20% Tris-glycine gel, transferred onto a nitrocellulose membrane and blocked in 3% bovine serum albumin (BSA). Immunoblotting was performed using an anti-pHER-3 antibody (antibody 21D3, Cell Signaling technology). An anti-actin antibody (AB a-2066, Sigma) was used as a control.
Expression was detected by enhanced chemiluminescence (Amersham Biosciences, Piscataway, N.J.). The images were captured with the Versadoc 5000 Imaging System (BioRad, Hercules, Calif.). […] See, FIG. 20 of US Publication No. 20080124345.

In data set [7] the target is T1, L1-S1 extra-cellular domains of HER-3 (Homo sapiens, UniProt P21860).
T1 construct: L1 domain (aa 19-184), in the S1 (aa 185-327); V5-His (C); made in house; host or cells: HEK 293T (supernatant)
The experiment in a line: ELISA binding to truncated L1-S1 HER-3 protein.

Data set [8] concerns Calu-3 NSCLC xenografts. Kind of data set: Calu-3 NSCLC xenograft, U1-59 with panitumumab or erlotinib. The settings on record: Calu-3, twice a week; 100 μg U1-59, 100 μg panitumumab, 25 μg erlotinib. It is filed as in vivo, mouse. The method, then: (§3) To determine in vivo efficacy, mice bearing ˜200 mm^3 Calu-3 NSCLC xenografts were treated twice a week with anti-HER family inhibitors or control. Other experiments were done with A549 cells.

The test system of data set [9] is MDA-MB-435 cells. Kind of data set: Anchorage-independent growth of MDA-MB-435 cells. The settings on record: basal MDA-MB-435. It is filed as cell-based, human. The method, then: as §2
Data set [10] has as its system A549 NSCLC xenograft. Kind of data set: A549 NSCLC xenograft model. It is filed as in vivo, mouse. The settings on record: vs IgG control or other HER mAbs. The method, then:
as §3
(§4) Tumor cell colonies formed in the absence of exogenous ligand for 10 days and were stained with MTT and quantified using a Scanalyzer HTS camera imaging system.

Data set [11] deals with BxPC3. The experiment in a line: BxPC3 xenograft in SCID mice, combination with Erbitux. It is filed as in vivo, mouse. The settings on record: BxPC3 with Matrigel, CB17 SCID mice, weekly i.p. for six weeks. As to the method:
5×10^6 BxPC3 cells were inoculated subcutaneously with Matrigel into CB17 SCID mice. After tumor volumes had reached 200 mm^3, mice were randomized into individual treatment groups. […] All antibodies were dosed at a single loading dose of 50 mg/kg/week, followed by weekly injections of 25 mg/kg for six weeks. Control arms received bi-weekly administrations of Gemcitabine (120 mg/kg), weekly pooled human IgG or weekly vehicle (PBS) injections. The regimens are detailed in TABLE 9 below.

Data set [12] has as its target T2, rat HER-3 (Rattus norvegicus, UniProt Q62799).
T2 construct: The cDNAs expressing the ECD of human and rat HER-3 were cloned into mammalian expression vectors as V5-His fusion proteins; V5-His; made in house; host or cells: mammalian expression vector; HEK 293T is named only for the chimeras
Kind of data set: ELISA cross-reactivity with rat HER-3. It is filed as binding. From the text: The extra-cellular domain (ECD) of Human HER-3 cDNA was amplified from RAT1-HER-3 cells. The rat HER-3 cDNAs was amplified by RT-PCR from rat liver RNA and confirmed by sequencing. The cDNAs expressing the ECD of human and rat HER-3 were cloned into mammalian expression vectors as V5-His fusion proteins. Domains from the human HER-3 ECD were swapped into the scaffold provided by the rat HER-3 ECD by using the Mfe1, BstX1 and DraIII internal restriction sites. By this means, various chimeric rat/human HER-3 ECD HIS fusion proteins (amino acids 1-160, 161-358, 359-575, 1-358, 359-604) were constructed and expressed via transient transfection of HEK 293T cells. Expression of the constructs was confirmed using a rat polyclonal antibody against human HER-3. The human monoclonal antibodies were tested in ELISA for binding to the secreted chimeric ECDs.

The test system of data set [13] is pHER-3. Kind of data set: pHER-3 in BxPC3 xenograft tumors (quantitative Western blot). It is filed as in vivo, mouse. The settings on record: for inhibition of pHER-3: quantitative Western blot. As to the method:
as §1

In data set [14] the test system is MDA-MB-175VII breast cancer cells. Kind of data set: Proliferation of MDA-MB-175VII cells (ALOMAR BLUE). It is filed as cell-based, human. The settings on record: four days. As to the method:
After four days, the growth of treated cells was measured with ALOMAR BLUE™.

The subject of data set [15] is A549 cells. Kind of data set: Anchorage-independent growth of A549 cells. It is filed as cell-based, human. The settings on record: A549, 10 μg/mL, 10 days.
Description: as §4

Data set [16] has as its target T3, reduced, denatured HER-3-His tagged purified ECD protein (Homo sapiens, UniProt P21860).
T3 construct: The extracellular domain of HER-3 (ECD) cDNA was cloned by polymerase chain reaction (PCR); His (C); made in house; host or cells: HEK293
Kind of data set: Dot blot analysis of reduced, denatured HER-3 ECD. It is filed as binding.

In data set [17] the test system is BxPC3. Kind of data set: BxPC3 pancreatic tumor xenograft in SCID mice (established tumors). The settings on record: BxPC3, CB17 SCID mice; for tumor growth: 50 mg/kg then 25 mg/kg once weekly i.p. It is filed as in vivo, mouse. The method, then:
As controls sets of mice treated with either the vehicle control, PBS, or the established therapeutic antibody, Erbitux, were included. 5×10^6 BxPC3 cells were inoculated subcutaneously without Matrigel into CB17 SCiD mice. […] Thereafter the mice received once weekly 25 mg/kg injections for the duration of the study.

Data set [18] is described as follows: Interspecies scaling of U1-59 PK to human. The settings on record: estimated by interspecies scaling (mice, rat, monkeys). As to the method: as §1
Data set [19] concerns HER-3 phosphorylation in MCF-7 cells. Kind of data set: HRG-β induced HER-3 phosphorylation in MCF-7 cells (ELISA). It is filed as cell-based, human. The settings on record: 10 nM HRG-β for 10 min, read-out: IC50, inhibition of phosphorylation of HER-3. The method, then:
Lysates were transferred to 1B4 (mouse anti-HER-3 mAb) ELISA plates and phosphorylation of HER-3 was analyzed with antibody 4G10. […] See, FIG. 7b of US Publication No. 20080124345.

[20] abbreviates: A549, 24 hours, 50 μg/ml U1-59, 5 μM gefitinib.

T2 sequence (Q62799 20-643 limits assumed): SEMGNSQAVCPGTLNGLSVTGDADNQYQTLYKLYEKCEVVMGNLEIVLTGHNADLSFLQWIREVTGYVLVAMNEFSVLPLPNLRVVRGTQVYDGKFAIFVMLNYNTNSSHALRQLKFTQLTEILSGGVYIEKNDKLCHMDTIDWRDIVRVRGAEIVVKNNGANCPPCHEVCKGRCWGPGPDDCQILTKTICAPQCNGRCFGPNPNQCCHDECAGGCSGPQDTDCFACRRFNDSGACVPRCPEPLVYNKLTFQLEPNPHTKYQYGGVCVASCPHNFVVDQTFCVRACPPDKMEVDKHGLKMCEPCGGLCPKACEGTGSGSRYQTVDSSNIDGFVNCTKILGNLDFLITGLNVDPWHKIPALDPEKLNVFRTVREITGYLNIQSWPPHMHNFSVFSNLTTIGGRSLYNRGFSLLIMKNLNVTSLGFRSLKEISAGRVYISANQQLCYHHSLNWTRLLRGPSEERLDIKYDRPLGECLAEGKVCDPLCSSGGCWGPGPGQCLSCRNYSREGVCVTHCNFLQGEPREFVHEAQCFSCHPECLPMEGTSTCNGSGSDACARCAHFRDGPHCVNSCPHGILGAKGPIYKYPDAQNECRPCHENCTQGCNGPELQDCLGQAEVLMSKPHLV

Regarding `COc1cc2ncnc(Nc3ccc(F)c(Cl)c3)c2cc1OCCCN1CCOCC1` [gefitinib, 4-(3-chloro-4-fluorophenylamino)-7-methoxy-6-[3-(4-morpholinyl)propoxy]quinazoline], the HER3 phosphorylation result in data set [1] (A549, 1 hour, 5 μM gefitinib) is listed as “partial inhibition of HER phosphorylation”; in [1] (setting [20]), “reversed to control levels after 24 hours”.
For the molecule `CS(=O)(=O)CCNCc1ccc(-c2ccc3ncnc(Nc4ccc(OCc5cccc(F)c5)c(Cl)c4)c3c2)o1` [lapatinib, N-[3-chloro-4-[(3-fluorobenzyl)oxy]phenyl]-6-[5-[[[2-(methylsulfonyl)ethyl]amino]methyl]furan-2-yl]quinazolin-4-amine bis(4-methylbenzene-sulfonate)monohydrate, reference compound], the tumor growth result in data set [2] is on record as “some, but not significant tumor growth inhibition”.
In the case of “U1-59: human anti-HER-3 antibody, SEQ ID NO: 70/72”, the “inhibition of tumor growth” value in data set [3] (200 μg/mouse biweekly) turned out to be 33%; in [3] (200 μg/mouse twice a week) it was 70%; in [3] (200 μg/mouse weekly), 74%; in data set [3] (400 μg/mouse biweekly) it was 50%. Further, the “inhibition of colony growth” value in [4] and in data set [15] was 50% each time. In addition, the “Serum concentration at necropsy, mean (SD)” value in [5] (200 μg/mouse biweekly) is given as 0.45 (0.21) μg/mL; in [5] (200 μg/mouse twice a week) it was 34.9 (9.1) μg/mL; in data set [5] (200 μg/mouse weekly), 3.08 (0.82) μg/mL; in data set [5] (400 μg/mouse biweekly), 2.07 (0.97) μg/mL. The tumor growth entry in data set [2] was “did not inhibit HCC-1569 tumor growth”; in [8], “greatly reduced tumor growth as compared to control”; in data set [10] it was “tumor stasis”; in data set [11] it was “delayed the growth of the human pancreatic tumors to the same degree as Gemcitabine”; in [17], “reduced the growth of the human pancreatic tumors in a cytostatic fashion”. Also, the “phosphorylation of HER-3 in tumors” value in data set [6] is listed as “no longer detectable”. The “binding to the L1-S1 protein” value in data set [7] was “bound to the L1-S1 protein”. The “colony growth / colony formation” value in data set [9] is given as “did not inhibit colony growth”. The HER3 phosphorylation result in data set [1] (setting [20]) is listed as “greater inhibition of HER phosphorylation that was sustained after 24 hours”. Moreover, in data set [12], the “Rat XR (cross-reactive)” value was “cross-reacted with rat HER-3 and Yes”. The “inhibition of pHER-3” value came to 58% in data set [13] (200 μg/mouse biweekly), 20% in data set [13] (200 μg/mouse twice a week), 23% in data set [13] (200 μg/mouse weekly) and 30% in data set [13] (400 μg/mouse biweekly). The “trough concentration needed to achieve 90% maximal pHER-3 inhibition (IC90)” value in data set [13] (BxPC3 xenograft mice, estimated) is listed as ~3 μg/ml. Further, the “reduction of HRG-stimulated proliferation” value in [14] is listed as “up to 40%”. The “binding in dot blot analysis” value in [16] is “absence of binding”. The “delay of tumor growth compared with Erbitux” value in data set [17] is given as “more effective than the EGF-R-targeting antibody Erbitux at delaying tumor growth”. Moreover, in data set [18], the “clearance (CL) in man” value is reported as 11 mL/day/kg. In [18], the “initial volume of distribution (Vd) in man” value was 0.028 L/kg.
“panitumumab: fully human monoclonal antibody specific to EGF-R [reference compound]”: the tumor growth result in [8] is “greatly reduced tumor growth as compared to control”.

B1: U1-53: anti-HER-3 antibody, SEQ ID NO: 54/56 (antibody, V domains shown)
VH: EVQLVESGGGLVQPGGSLRLSCAASGFTFSIYSMNWVRQAPGKGLEWVSYISSSSSTIYYADSVKGRFTISRDNAKNSLYLQMNSLRDEDTAVYYCARDRGDFDAFDIWGQGTMVTVSS
VL: DIQMTQSPSSLSASVGDRVTITCQASQDITNYLNWYQQKPGKAPKLLIYDASNLETGVPSRFSGSGSGTDFTFTISSLQPEDIATYNCQQCENFPITFGQGTRLEIK
As for B1, in [19], the IC50 was 0.14 nM. Besides, the results for the tumor growth result in data set [11] and in [17] were “delayed the growth of the human pancreatic tumors to the same degree as Gemcitabine” and “reduced the growth of the human pancreatic tumors in a cytostatic fashion”, respectively. In addition, the “Rat XR (cross-reactive)” value in data set [12] is reported as “No”. In addition, the “binding in dot blot analysis” value in [16] is listed as “absence of binding”. Further, the “delay of tumor growth compared with Erbitux” value in data set [17] was “more effective than the EGF-R-targeting antibody Erbitux at delaying tumor growth”.
